Patent publication US12583866B2, “Pyrido[2,3-b][1,4]oxazines or tetrahydropyrido[2,3-b][1,4]oxazepines as IAP antagonists” (BEIGENE, LTD., priority 2020, dated 2026)

Columns and labels:
[1] = target: T1, recombinant human cIAP2-BIR3 protein (Homo sapiens, UniProt Q13489); test: Recombinant human c-IAP2-BIR3 biochemical assay (HTRF, peptide displacement); details: 3.7 nM cIAP2-BIR3, 3.7 nM AbuRPF-K(5-Fam)-NH2 peptide, read-out: Protein binding IC50 (nM) c-IAP2
T1 construct: recombinant human cIAP2-BIR3 protein; purchased Reaction biology APT-11-372
T1 sequence (Q13489 238-349 limits assumed): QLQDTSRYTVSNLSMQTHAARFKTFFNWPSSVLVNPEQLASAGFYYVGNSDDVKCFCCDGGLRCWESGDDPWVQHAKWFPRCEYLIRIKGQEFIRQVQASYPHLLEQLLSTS
Description: II. Recombinant Human c-IAP2-BIR3 Biochemical Assay
(§1) Compounds disclosed herein were tested for blocking of recombinant human cIAP2-BIR3 protein (Cat: APT-11-372, Reaction biology) with its peptide in an assay based on Homogeneous Time Resolved Fluorescence. 3.7 nM recombinant human cIAP2-BIR3 protein was pre-incubated with a serial dilution of compounds disclosed herein (maximum concentration is 10 uM, 4-fold serially diluted, 10 points) at room temperature for 1 hour in an assay buffer containing 20 mM HEPES, pH 7.5, 50 mM NaCl, 0.005% Tween-20, 1 mM DTT. Then 3.7 nM AbuRPF-K(5-Fam)-NH2 (Cat: 709702, GL Biochem) was added to plate incubated at room temperature for 1 hour. Mab Anti-6His Tb cryptate Gold (Cat: 61HI2TLB, Cisbio Bioassays) was added to plate and further incubated at room temperature for 1 hour. The HTRF signals (ex337 nm, em520 nm/490 nm) were read on BMG PHERAstar FS instrument. The inhibition percentage of cIAP2-BIR3 interaction with its peptide in presence of increasing concentrations of compounds was calculated based on the ratio of fluorescence at 520 nm to that at 490 nm. The IC50 for each compound was derived from fitting the data to the four-parameter logistic equation by Dotmatics and summarized in table 1.

[2] = target: T2, recombinant human XIAP-BIR3 protein (Homo sapiens, UniProt P98170); test: Recombinant human XIAP-BIR3 biochemical assay (HTRF, peptide displacement); details: 3.7 nM XIAP-BIR3, 7.6 nM AbuRPF-K(5-Fam)-NH2 peptide, read-out: Protein binding IC50 (nM) XIAP
T2 construct: recombinant human XIAP-BIR3 protein; purchased Reaction biology APT-11-374
T2 sequence (P98170 241-356 limits assumed): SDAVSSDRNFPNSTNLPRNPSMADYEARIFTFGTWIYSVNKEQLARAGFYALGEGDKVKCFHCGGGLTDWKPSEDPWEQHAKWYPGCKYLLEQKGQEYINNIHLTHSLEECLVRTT
Description: III. Recombinant Human XIAP-BIR3 Biochemical Assay
as §1, with “human XIAP-BIR3” for “human cIAP2-BIR3”, “(Cat: APT-11-374,” for “(Cat: APT-11-372,”, “Then 7.6” for “Then 3.7”, “of XIAP-BIR3” for “of cIAP2-BIR3”

[3] = target: T3, recombinant human cIAP1-BIR3 protein (Homo sapiens, UniProt Q13490); test: Recombinant human c-IAP1-BIR3 biochemical assay (HTRF, peptide displacement); details: 1.2 nM cIAP1-BIR3, 3 nM AbuRPF-K(5-Fam)-NH2 peptide, read-out: Protein binding IC50 (nM) c-IAP1
T3 construct: recombinant human cIAP1-BIR3 protein; purchased Reaction biology APT-11-370
T3 sequence (Q13490 253-363 limits assumed): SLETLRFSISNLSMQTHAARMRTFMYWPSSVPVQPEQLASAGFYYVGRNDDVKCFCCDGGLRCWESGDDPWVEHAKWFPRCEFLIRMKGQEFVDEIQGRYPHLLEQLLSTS
Description: I. Recombinant human c-IAP1-BIR3 biochemical assay
as §1, with “human cIAP1-BIR3” for “human cIAP2-BIR3”, “(Cat: APT-11-370,” for “(Cat: APT-11-372,”, “Fluorescence. 1.2” for “Fluorescence. 3.7”, “Then 3” for “Then 3.7”, “nM AbuRPF-K (5-Fam)-NH2” for “nM AbuRPF-K(5-Fam)-NH2”, “of cIAP1-BIR3” for “of cIAP2-BIR3”

SMILES | IC50 [1] [nM] | IC50 [2] [nM] | IC50 [3] [nM]
C[C@@H]1CN(CC(=O)N2c3cc(Cc4ccc(F)cc4)c(CO)nc3OC[C@@H]2C)[C@@H](CN2CCOC[C@H]2CO)CN1 [Compound 54, 1-((S)-7-(4-fluorobenzyl)-6-(hydroxymethyl)-2-methyl-2,3-dihydro-1H-pyrido[2,3-b][1,4]oxazin-1-yl)-2-((2R,5R)-2-(((R)-3-(hydroxymethyl)morpholino)methyl)-5-methylpiperazin-1-yl)ethan-1-one] | 2.8 | 25 | 1.7
COC[C@H]1COc2nc(CO)c(Cc3ccc(F)cc3)cc2N1C(=O)CN1C[C@@H](C)NC[C@@H]1CN1CCOC[C@H]1C [Compound 57, 1-((S)-7-(4-fluorobenzyl)-6-(hydroxymethyl)-2-(methoxymethyl)-2,3-dihydro-1H-pyrido[2,3-b][1,4]oxazin-1-yl)-2-((2R,5R)-5-methyl-2-(((R)-3-methylmorpholino)methyl)piperazin-1-yl)ethan-1-one] | 1.9 | 95 | 1.2
CC(C)OC[C@@H]1COCCN1C[C@H]1CN[C@H](C)CN1CC(=O)N1c2cc(Cc3ccc(F)cc3)c(CO)nc2OC[C@@H]1C [Compound 59] | 0.67 | 7.8 | 0.26
CC[C@@H]1COCCN1C[C@H]1CN[C@H](C)CN1CC(=O)N1c2cc(Cc3ccc(F)cc3)c(CO)nc2OC[C@@H]1C [Compound 51, 2-((2R,5R)-2-(((R)-3-ethylmorpholino)methyl)-5-methylpiperazin-1-yl)-1-((S)-7-(4-fluorobenzyl)-6-(hydroxymethyl)-2-methyl-2,3-dihydro-1H-pyrido[2,3-b][1,4]oxazin-1-yl)ethan-1-one] | 0.67 | 9.2 | 0.3
C[C@@H]1CN(CC(=O)N2c3cc(Cc4ccc(F)cc4)cnc3OC[C@@H]2C2CC2)[C@@H](CN2[C@H](C)COC[C@H]2C)CN1 [Compound 27, 1-((S)-2-cyclopropyl-7-(4-fluorobenzyl)-2,3-dihydro-1H-pyrido[2,3-b][1,4]oxazin-1-yl)-2-((2R,5R)-2-(((3R,5R)-3,5-dimethylmorpholino)methyl)-5-methylpiperazin-1-yl)ethan-1-one] | 0.5 | 14 | 0.2

Second part, the molecule after the results:

IC50 [1] [nM] | IC50 [2] [nM] | IC50 [3] [nM] | SMILES
0.28 | 3.3 | 0.16 | C[C@@H]1CN(CC(=O)N2c3cc(Cc4ccc(F)cc4)c(C(=O)NC[C@H]4CCCO4)nc3OC[C@@H]2C)[C@@H](CN2[C@H](C)COC[C@H]2C)CN1 [Compound 94, (S)-1-(2-((2R,5R)-2-(((3R,5R)-3,5-dimethylmorpholino)methyl)-5-methylpiperazin-1-yl)acetyl)-7-(4-fluorobenzyl)-2-methyl-N—(((R)-tetrahydrofuran-2-yl)methyl)-2,3-dihydro-1H-pyrido[2,3-b][1,4]oxazine-6-carboxamide]
0.35 | 4.4 | 0.2 | C[C@@H]1CN(CC(=O)N2c3cc(Cc4ccc(F)cc4)c(NC(=O)C4CC4)nc3OC[C@@H]2C)[C@@H](CN2[C@H](C)COC[C@H]2C)CN1 [Compound 119, N—((S)-1-(2-((2R,5R)-2-(((3R,5R)-3,5-dimethylmorpholino)methyl)-5-methylpiperazin-1-yl)acetyl)-7-(4-fluorobenzyl)-2-methyl-2,3-dihydro-1H-pyrido[2,3-b][1,4]oxazin-6-yl)cyclopropanecarboxamide]
0.63 | 12.4 | 0.35 | C[C@@H]1CN(CC(=O)N2c3cc(Cc4ccc(F)cc4)c(C(N)=O)nc3OC[C@@H]2C)[C@@H](CN2CCOCC23CC3)CN1 [Compound 88, (S)-1-(2-((2R,5R)-2-((7-oxa-4-azaspiro[2.5]octan-4-yl)methyl)-5-methylpiperazin-1-yl)acetyl)-7-(4-fluorobenzyl)-2-methyl-2,3-dihydro-1H-pyrido[2,3-b][1,4]oxazine-6-carboxamide]
